From ChEMBL document CHEMBL4673175, “An epigrammatic status of the azole-based antimalarial drugs” (RSC Med Chem, 2020)

Tested on: Plasmodium falciparum
Test: Antiplasmodial activity against ring stage Plasmodium falciparum incubated for 72 hrs by SYBR Green I based assay
Type: functional, organism-based

IC50: 725 nM
SMILES: CCOC(=O)c1sc(N/N=C(\C)c2ccccn2)nc1C
